Measurements from paper PMC11801715, “Activating PKC-ε induces HIV expression with improved tolerability” (PLOS Pathogens, 2025).

Tests used:
[1] = In vivo monkey study: tolerability, clinical pathology, histopathology; parameters: species or system rhesus macaque; settings: male, rhesus monkey, in vivo; single IV infusion; read-out: maximum tolerated dose
Description: (§1) Male rhesus macaque monkeys (young adult to adult) were sourced from the Covance stock colony for conduct of in vivo studies at Covance Laboratories Inc. (Madison, Wisconsin, USA). Monkeys were administered a single dose of vehicle control (n = 3), 0.03, 0.1, 0.3, or 1 mg/kg of C-232A (n = 1) by intravenous infusion over 30 minutes using a sentinel approach. An additional 2 male monkeys were administered 0.3 mg/kg C232A after it was determined that this was the maximum tolerated dose level. Blood samples were collected through 24 hours postdose. Samples for PK (for measurement of C-232A concentration) and cytokine analysis were processed to plasma and shipped to Gilead Sciences. Activation of CD4^+ T cells was assessed by measuring CD69 expression levels in whole blood by flow cytometry (Covance Laboratories). Samples for clinical pathology were analyzed at Covance Laboratories for hematology, coagulation, and clinical chemistry panels. At unscheduled necropsy (1 mg/kg C-232A), tissues were preserved in 10% neutral-buffered formalin, embedded in paraffin, and processed to slides for staining with hematoxylin and eosin. Tissues were then evaluated independently (Experimental Pathology Laboratories, Inc).

rhesus macaques = experiment: as above; parameters: species or system rhesus macaque
Description: as §1

[2] = Plasma PK in rhesus macaques; format: in vivo, rhesus macaque; settings: 0.03, 0.1, 0.3, and 1 mg/kg, slow IV infusion
Description: as §1, with “At unscheduled necropsy (1 mg/kg C-232A), tissues were preserved in 10% neutral-buffered formalin, embedded in paraffin, and processed to slides for staining with hematoxylin and eosin.” left out
Rat and rhesus plasma samples (20 µL aliquot of each) were treated with 100 µL acetonitrile containing a generic internal small-molecule standard. […] The descriptive PK parameters were analyzed using noncompartmental analysis with Phoenix WinNonlin software (version 8.2, Certara USA, Inc.). […]

[3] = tested on: plasma cytokines/chemokines; experiment: Cytokine/chemokine analysis in plasma; format: in vivo, rhesus macaque; settings: 4 hours post dose
Excerpt: For plasma cytokine analysis (S1 Table), whole blood was collected into K2EDTA tubes from C-232A and vehicle dosed rhesus macaques (prebleed and various post-dose time points) and plasma was isolated and stored at −80^ºC. Cytokine/chemokine analysis in plasma samples was accomplished using a nonhuman primate-specific 37 Plex ProcartaPlex immunoassay system (Thermo Fisher Scientific) according to the manufacturer’s instructions. Samples were then read on a Luminex 200 (Luminex) platform and analyzed using Bio-plex Manager software (Bio-Rad).

CD69 on CD4+ T cells = experiment: CD69 expression levels in rhesus blood (flow cytometry); format: in vivo, rhesus macaque
Description: CD69 protein expression levels in whole blood were measured using flow cytometry. Samples, collected in K2EDTA tubes, were surface stained with anti-human monoclonal antibodies against markers CD3 (UCHT1), CD4 (SK3), and activation marker CD69 (FN50) for 30 minutes at RT. Red blood cells were lysed and cells were fixed (BD Lyse/Fix buffer) according to the manufacturer’s instructions. All data were acquired on an LSR II (BD Biosciences) and were analyzed using FlowJo software.

PKC-α = PKC-α (Homo sapiens, UniProt P17252); experiment: PKC isoform translocation in A549-tGFP cells; format: cell-based; parameters: host or cells: A549; settings: A549-tGFP cells, 60 minutes; read-out: EC50 for PKC-α translocation
Description: A description of this effort is reported elsewhere.
Cellular translocation of PKC isoforms upon activation was determined in 8 A549 cell lines, each expressing a single PKC isoform fused to tGFP (PhenoVista Biosciences). Cells were plated in 384-well plates (80 μL/well) at 10^5 cells/mL in RPMI with 10% FBS and rested overnight. PKC agonist(s) were serially diluted at 1:3 steps in DMSO and added to the cells. After 60 minutes in an incubator at 37 °C, 5% CO2, cells were stained with Hoechst-33342 and fixed with 2% paraformaldehyde for 30 minutes at 4 °C. Cells were then stained with wheat germ agglutinin conjugated to AlexaFluor647 (WGA-647) for 10 minutes at 4 °C, washed to remove excess dye and imaged with Cellomics Array Scan (Thermo Fisher) at room temperature (RT). Images were analyzed using Cellomics automated image analysis algorithm. Plasma membrane translocation was quantified using the ratio between the average fluorescence in the areas at the cell edge defined by WGA-647 and the cytoplasm region.

Compound: Cc1ccc(C#Cc2ccc3oc(CC(C)(C)C(=O)OCC4(CO)CC(=CCC(CC(C)C)CC(C)C)C(=O)O4)cc3c2)cc1 (stereo not drawn) [C-232A]
- MTD [1]: 0.3 mg/kg
- circulating fibrinogen (rhesus macaques; 1 mg/kg): decreased
- coagulation times (rhesus macaques; 1 mg/kg): prolonged
- histopathology (rhesus macaques; 1 mg/kg): hemorrhage in the lung and adrenal gland
- outcome (severe clinical signs) (rhesus macaques; 1 mg/kg, single IV infusion, 1 monkey): euthanized 8 hours postdose
- tolerability (rhesus macaques; 0.03, 0.1, and 0.3 mg/kg, single IV infusion): well tolerated
- circulating platelet counts (rhesus macaques; higher doses): < 100,000 platelets/µL
- mean platelet volume (rhesus macaques; higher doses): > 15 fL
- PK plasma profile [2]: dose-dependent C-232A PK plasma profiles
- I-TAC in plasma ([3]; 0.03 mg/kg): 88 pg/mL
- IFN-α in plasma ([3]; 0.03 mg/kg): 90 pg/mL
- IFN-γ in plasma ([3]; 0.03 mg/kg): 43 pg/mL
- IL-1RA in plasma ([3]; 0.03 mg/kg): 169 pg/mL
- IL-1β in plasma ([3]; 0.03 mg/kg): 45 pg/mL
- IL-6 in plasma ([3]; 0.03 mg/kg): 43 pg/mL
- IL-8 in plasma ([3]; 0.03 mg/kg): 275 pg/mL
- IL-10 in plasma ([3]; 0.03 mg/kg): 42 pg/mL
- IL-18 in plasma ([3]; 0.03 mg/kg): 114 pg/mL
- MCP-1 in plasma ([3]; 0.03 mg/kg): 1900 pg/mL
- MIG in plasma ([3]; 0.03 mg/kg): 55 pg/mL
- MIP-1α in plasma ([3]; 0.03 mg/kg): 208 pg/mL
- MIP-1β in plasma ([3]; 0.03 mg/kg): 131 pg/mL
- TNF-α in plasma ([3]; 0.03 mg/kg): 56 pg/mL
- VEGF-A in plasma ([3]; 0.03 mg/kg): 107 pg/mL
- I-TAC in plasma ([3]; 0.1 mg/kg): 427 pg/mL
- IFN-α in plasma ([3]; 0.1 mg/kg): 143 pg/mL
- IFN-γ in plasma ([3]; 0.1 mg/kg): 75 pg/mL
- IL-1RA in plasma ([3]; 0.1 mg/kg): 775 pg/mL
- IL-1β in plasma ([3]; 0.1 mg/kg): 70 pg/mL
- IL-6 in plasma ([3]; 0.1 mg/kg): 126 pg/mL
- IL-8 in plasma ([3]; 0.1 mg/kg): 2531 pg/mL
- IL-10 in plasma ([3]; 0.1 mg/kg): 80 pg/mL
- IL-18 in plasma ([3]; 0.1 mg/kg): 193 pg/mL
- MCP-1 in plasma ([3]; 0.1 mg/kg): 3250 pg/mL
- MIG in plasma ([3]; 0.1 mg/kg): 64 pg/mL
- MIP-1α in plasma ([3]; 0.1 mg/kg): 160 pg/mL
- MIP-1β in plasma ([3]; 0.1 mg/kg): 428 pg/mL
- TNF-α in plasma ([3]; 0.1 mg/kg): 39 pg/mL
- VEGF-A in plasma ([3]; 0.1 mg/kg): 161 pg/mL
- I-TAC in plasma ([3]; 0.3 mg/kg): 365 pg/mL
- IFN-α in plasma ([3]; 0.3 mg/kg): 112 pg/mL
- IFN-γ in plasma ([3]; 0.3 mg/kg): 53 pg/mL
- IL-1RA in plasma ([3]; 0.3 mg/kg): 2265 pg/mL
- IL-1β in plasma ([3]; 0.3 mg/kg): 59 pg/mL
- IL-6 in plasma ([3]; 0.3 mg/kg): 76 pg/mL
- IL-8 in plasma ([3]; 0.3 mg/kg): 375 pg/mL
- IL-10 in plasma ([3]; 0.3 mg/kg): 54 pg/mL
- IL-18 in plasma ([3]; 0.3 mg/kg): 145 pg/mL
- MCP-1 in plasma ([3]; 0.3 mg/kg): 6117 pg/mL
- MIG in plasma ([3]; 0.3 mg/kg): 55 pg/mL
- MIP-1α in plasma ([3]; 0.3 mg/kg): 187 pg/mL
- MIP-1β in plasma ([3]; 0.3 mg/kg): 707 pg/mL
- TNF-α in plasma ([3]; 0.3 mg/kg): 19 pg/mL
- VEGF-A in plasma ([3]; 0.3 mg/kg): 81 pg/mL
- I-TAC in plasma ([3]; 1 mg/kg): 5602 pg/mL
- IFN-α in plasma ([3]; 1 mg/kg): 187 pg/mL
- IFN-γ in plasma ([3]; 1 mg/kg): 200 pg/mL
- IL-1RA in plasma ([3]; 1 mg/kg): 4471 pg/mL
- IL-1β in plasma ([3]; 1 mg/kg): 343 pg/mL
- IL-6 in plasma ([3]; 1 mg/kg): 3872 pg/mL
- IL-8 in plasma ([3]; 1 mg/kg): 6153 pg/mL
- IL-10 in plasma ([3]; 1 mg/kg): 82 pg/mL
- IL-18 in plasma ([3]; 1 mg/kg): 351 pg/mL
- MCP-1 in plasma ([3]; 1 mg/kg): 13,620 pg/mL
- MIG in plasma ([3]; 1 mg/kg): 658 pg/mL
- MIP-1α in plasma ([3]; 1 mg/kg): 1111 pg/mL
- MIP-1β in plasma ([3]; 1 mg/kg): 3913 pg/mL
- TNF-α in plasma ([3]; 1 mg/kg): 28 pg/mL
- VEGF-A in plasma ([3]; 1 mg/kg): 330 pg/mL
- expression of CD69 on CD4+ T cells (CD69 on CD4+ T cells; 1 mg/kg, at peak): 59%
- time of peak CD69 expression postdose (CD69 on CD4+ T cells; rhesus monkey, in vivo): 4 to 8 h
- EC50 (PKC-α): > 39.5 µM
